Measured values from ChEMBL document CHEMBL1687839, “ISAba825, a functional insertion sequence modulating genomic plasticity and bla(OXA-58) expression in Acinetobacter baumannii” (2011).
Values after ≈ are worked out from the molar mass of the structure shown.

Legend:
Format in all cases: functional
Acinetobacter baumannii [1] = experiment: Ratio of MIC for Acinetobacter baumannii ATCC 17978 harboring plasmid pWHP825 to MIC for Acinetobacter baumannii ATCC 17978 harboring plasmid 1266
Acinetobacter baumannii [2] = experiment: Antibacterial activity against Acinetobacter baumannii Ab880 overexpressing beta-lactamase OXA-58 under the control of ISAba825 insertion sequence
Acinetobacter baumannii [3] = experiment: Antibacterial activity against Acinetobacter baumannii ATCC 17978 harboring plasmid directed expression of beta-lactamase OXA-58 under an ISAba3 promoter
Acinetobacter baumannii [4] = experiment: Antibacterial activity against Acinetobacter baumannii ATCC 17978
Acinetobacter baumannii [5] = experiment: Antibacterial activity against Acinetobacter baumannii ATCC 17978 harboring pAB880
Acinetobacter baumannii [6] = experiment: Antibacterial activity against Acinetobacter baumannii ATCC 17978 harboring plasmid 1266
Acinetobacter baumannii [7] = experiment: Antibacterial activity against Acinetobacter baumannii ATCC 17978 harboring plasmid directed expression of beta-lactamase OXA-58 under an ISAba825-ISAba3 hybrid and ISAba3-derived promoter sequence

C[C@@H](O)[C@H]1C(=O)N2C(C(=O)O)=C(SCCNC=N)C[C@H]12 [IMIPENEM ANHYDROUS]
Ratio (Acinetobacter baumannii [1]): 128 | MIC (Acinetobacter baumannii [2]): 16 µg/mL (≈ 53.4 µM) | MIC (Acinetobacter baumannii [3]): 0.5 µg/mL (≈ 1.67 µM) | MIC (Acinetobacter baumannii [4]): 0.25 µg/mL (≈ 0.835 µM) | MIC (Acinetobacter baumannii [5]): 16 µg/mL (≈ 53.4 µM) | MIC (Acinetobacter baumannii [6]): 0.25 µg/mL (≈ 0.835 µM) | MIC (Acinetobacter baumannii [7]): 32 µg/mL (≈ 107 µM)

C[C@@H](O)[C@H]1C(=O)N2C(C(=O)O)=C(S[C@@H]3CN[C@H](C(=O)N(C)C)C3)[C@H](C)[C@H]12 [MEROPENEM]
Ratio (Acinetobacter baumannii [1]): 64 | MIC (Acinetobacter baumannii [2]): 16 µg/mL (≈ 41.7 µM) | MIC (Acinetobacter baumannii [3]): 0.5 µg/mL (≈ 1.3 µM) | MIC (Acinetobacter baumannii [4]): 0.25 µg/mL (≈ 0.652 µM) | MIC (Acinetobacter baumannii [5]): 8 µg/mL (≈ 20.9 µM) | MIC (Acinetobacter baumannii [6]): 0.25 µg/mL (≈ 0.652 µM) | MIC (Acinetobacter baumannii [7]): 16 µg/mL (≈ 41.7 µM)
